According to ChEMBL document CHEMBL1687690, “Antiproliferative and differentiating activities of a novel series of histone deacetylase inhibitors” (ACS Med Chem Lett, 2010):
The source made the active and inactive calls. The calls are words filed in the database; no cut-off is given here.

target: Tubulin; assay: Inhibition of HDAC activity in human NB4 cells assessed as acetylated tubulin after 24 hrs by Western blot analysis; format: cell-based; conditions: nb-4

Compound	EC50 [nM]
O=C(CCCCCN1C(=O)c2ccccc2Oc2ccc(Cl)cc21)NO	440
CN1c2ccccc2C(=O)N(CCCCCC(=O)NO)c2ccccc21	2740
COc1ccc2c(c1)N(CCCCCC(=O)NO)C(=O)c1ccccc1S2(=O)=O	50
O=C(CCCCCN1C(=O)c2ccccc2Oc2ccccc21)NO	290
O=C(CCCCCN1C(=O)c2ccccc2Nc2ccc(Cl)cc21)NO	320
O=C(CCCCCN1C(=O)c2ccccc2Sc2ccccc21)NO	370
O=C(CCCCCN1C(=O)c2ccccc2Sc2ccc(Cl)cc21)NO	150
COc1ccc2c(c1)N(CCCCCC(=O)NO)C(=O)c1ccccc1S2	130
COc1ccc2c(c1)N(CCCCCC(=O)NO)C(=O)c1ccccc1O2	90
COc1ccc2c(c1)N(CCCCCC(=O)NO)C(=O)c1ccccc1N2	250
O=C(CCCCCN1C(=O)c2ccccc2Nc2ccccc21)NO	1170
O=C(CCCCCN1C(=O)c2ccccc2S(=O)(=O)c2ccccc21)NO	50
O=C(CCCCCN1C(=O)c2ccccc2S(=O)(=O)c2ccc(Cl)cc21)NO	40

target: Histone deacetylase; assay: Inhibition of HDAC activity in human NB4 cells assessed as acetylation of histone H3 after 24 hrs by Western blot analysis; format: cell-based; conditions: nb-4

Compound	EC50 [nM]
O=C(CCCCCN1C(=O)c2ccccc2Oc2ccc(Cl)cc21)NO	380
CN1c2ccccc2C(=O)N(CCCCCC(=O)NO)c2ccccc21	2650
COc1ccc2c(c1)N(CCCCCC(=O)NO)C(=O)c1ccccc1S2(=O)=O	30
O=C(CCCCCN1C(=O)c2ccccc2Oc2ccccc21)NO	6240
O=C(CCCCCN1C(=O)c2ccccc2Nc2ccc(Cl)cc21)NO	840
O=C(CCCCCN1C(=O)c2ccccc2Sc2ccccc21)NO	460
O=C(CCCCCN1C(=O)c2ccccc2Sc2ccc(Cl)cc21)NO	340
COc1ccc2c(c1)N(CCCCCC(=O)NO)C(=O)c1ccccc1S2	190
COc1ccc2c(c1)N(CCCCCC(=O)NO)C(=O)c1ccccc1O2	200
COc1ccc2c(c1)N(CCCCCC(=O)NO)C(=O)c1ccccc1N2	390
O=C(CCCCCN1C(=O)c2ccccc2Nc2ccccc21)NO	1300
O=C(CCCCCN1C(=O)c2ccccc2S(=O)(=O)c2ccccc21)NO	500
O=C(CCCCCN1C(=O)c2ccccc2S(=O)(=O)c2ccc(Cl)cc21)NO	30

system: not listed separately; assay: Ratio of IC50 for HDAC2 to IC50 for HDAC6; conditions: not given

Compound	Ratio IC50
O=C(CCCCCN1C(=O)c2ccccc2Oc2ccccc21)NO	61
O=C(CCCCCN1C(=O)c2ccccc2S(=O)(=O)c2ccccc21)NO	48

system: NB-4; assay: Antiproliferative activity against human NB4 cells after 24 hrs by alamar blue assay; format: functional, cell-based; conditions: NB-4, 24 h

Compound	IC50 [nM]
O=C(CCCCCN1C(=O)c2ccccc2Oc2ccc(Cl)cc21)NO	160
CN1c2ccccc2C(=O)N(CCCCCC(=O)NO)c2ccccc21	2460
COc1ccc2c(c1)N(CCCCCC(=O)NO)C(=O)c1ccccc1S2(=O)=O	20
O=C(CCCCCN1C(=O)c2ccccc2Oc2ccccc21)NO	610
O=C(CCCCCN1C(=O)c2ccccc2Nc2ccc(Cl)cc21)NO	290
O=C(CCCCCN1C(=O)c2ccccc2Sc2ccccc21)NO	190
O=C(CCCCCN1C(=O)c2ccccc2Sc2ccc(Cl)cc21)NO	30
COc1ccc2c(c1)N(CCCCCC(=O)NO)C(=O)c1ccccc1S2	30
COc1ccc2c(c1)N(CCCCCC(=O)NO)C(=O)c1ccccc1O2	140
COc1ccc2c(c1)N(CCCCCC(=O)NO)C(=O)c1ccccc1N2	140
O=C(CCCCCN1C(=O)c2ccccc2Nc2ccccc21)NO	730
O=C(CCCCCN1C(=O)c2ccccc2S(=O)(=O)c2ccccc21)NO	120
O=C(CCCCCN1C(=O)c2ccccc2S(=O)(=O)c2ccc(Cl)cc21)NO	20

system: HCT-116; assay: Antiproliferative activity against human HCT116 cells after 24 hrs by alamar blue assay; format: functional, cell-based; conditions: HCT-116, 24 h

Compound	IC50 [nM]
O=C(CCCCCN1C(=O)c2ccccc2Oc2ccc(Cl)cc21)NO	200
CN1c2ccccc2C(=O)N(CCCCCC(=O)NO)c2ccccc21	8100
COc1ccc2c(c1)N(CCCCCC(=O)NO)C(=O)c1ccccc1S2(=O)=O	40
O=C(CCCCCN1C(=O)c2ccccc2Oc2ccccc21)NO	640
O=C(CCCCCN1C(=O)c2ccccc2Nc2ccc(Cl)cc21)NO	450
O=C(CCCCCN1C(=O)c2ccccc2Sc2ccccc21)NO	390
O=C(CCCCCN1C(=O)c2ccccc2Sc2ccc(Cl)cc21)NO	60
COc1ccc2c(c1)N(CCCCCC(=O)NO)C(=O)c1ccccc1S2	90
COc1ccc2c(c1)N(CCCCCC(=O)NO)C(=O)c1ccccc1O2	310
COc1ccc2c(c1)N(CCCCCC(=O)NO)C(=O)c1ccccc1N2	360
O=C(CCCCCN1C(=O)c2ccccc2Nc2ccccc21)NO	> 10000
O=C(CCCCCN1C(=O)c2ccccc2S(=O)(=O)c2ccccc21)NO	150
O=C(CCCCCN1C(=O)c2ccccc2S(=O)(=O)c2ccc(Cl)cc21)NO	30

system: HCT-116; assay: Antitumor activity against human HCT116 cells xenografted in athymic nude mouse assessed as decrease in tumor volume at 12.5 mg/kg, iv administered once daily for 5 days per week by caliper measurement; format: functional, organism-based; set-up: dose 12.5 mg/kg; conditions: not given

Compound	inhibition
O=C(CCCCCN1C(=O)c2ccccc2Sc2ccc(Cl)cc21)NO	Active

system: HCT-116; assay: Antitumor activity against human HCT116 cells xenografted in athymic nude mouse assessed as decrease in tumor volume at 6.2 mg/kg, iv administered once daily for 5 days per week by caliper measurement; format: functional, organism-based; set-up: dose 6.2 mg/kg; conditions: not given

Compound	inhibition
O=C(CCCCCN1C(=O)c2ccccc2Sc2ccc(Cl)cc21)NO	inactive

system: HCT-116; assay: Antitumor activity against human HCT116 cells xenografted in athymic nude mouse assessed as decrease in tumor volume at 25 mg/kg, iv administered once daily for 5 days per week by caliper measurement; format: functional, organism-based; set-up: dose 25 mg/kg; conditions: not given

Compound	inhibition
COc1ccc2c(c1)N(CCCCCC(=O)NO)C(=O)c1ccccc1S2	Active

target: T1, Histone deacetylase (Homo sapiens) (UniProt Q13547+O15379+Q9UBN7+Q92769+Q9UQL6+Q8WUI4+Q9BY41+Q96DB2+P56524+Q9UKV0+Q969S8); assay: Inhibition of HDAC activity in human NB4 cells assessed as maximum acetylation of histone H4 at EC50 concentration after 24 hrs by Western blot analysis relative to control; format: cell-based; conditions: NB-4

Compound	Ratio
O=C(CCCCCN1C(=O)c2ccccc2Oc2ccc(Cl)cc21)NO	9
CN1c2ccccc2C(=O)N(CCCCCC(=O)NO)c2ccccc21	14
COc1ccc2c(c1)N(CCCCCC(=O)NO)C(=O)c1ccccc1S2(=O)=O	1460
O=C(CCCCCN1C(=O)c2ccccc2Oc2ccccc21)NO	54
O=C(CCCCCN1C(=O)c2ccccc2Nc2ccc(Cl)cc21)NO	78
O=C(CCCCCN1C(=O)c2ccccc2Sc2ccccc21)NO	89
O=C(CCCCCN1C(=O)c2ccccc2Sc2ccc(Cl)cc21)NO	2330
COc1ccc2c(c1)N(CCCCCC(=O)NO)C(=O)c1ccccc1S2	28
COc1ccc2c(c1)N(CCCCCC(=O)NO)C(=O)c1ccccc1O2	206
COc1ccc2c(c1)N(CCCCCC(=O)NO)C(=O)c1ccccc1N2	244
O=C(CCCCCN1C(=O)c2ccccc2Nc2ccccc21)NO	126
O=C(CCCCCN1C(=O)c2ccccc2S(=O)(=O)c2ccccc21)NO	336
O=C(CCCCCN1C(=O)c2ccccc2S(=O)(=O)c2ccc(Cl)cc21)NO	795

target: T1, Histone deacetylase (Homo sapiens); assay: Inhibition of HDAC activity in human NB4 cells assessed as maximum acetylation of histone H3 at EC50 concentration after 24 hrs by Western blot analysis relative to control; format: cell-based; conditions: NB-4

Compound	Ratio
O=C(CCCCCN1C(=O)c2ccccc2Oc2ccc(Cl)cc21)NO	3
CN1c2ccccc2C(=O)N(CCCCCC(=O)NO)c2ccccc21	10
COc1ccc2c(c1)N(CCCCCC(=O)NO)C(=O)c1ccccc1S2(=O)=O	4740
O=C(CCCCCN1C(=O)c2ccccc2Oc2ccccc21)NO	15
O=C(CCCCCN1C(=O)c2ccccc2Nc2ccc(Cl)cc21)NO	31
O=C(CCCCCN1C(=O)c2ccccc2Sc2ccccc21)NO	190
O=C(CCCCCN1C(=O)c2ccccc2Sc2ccc(Cl)cc21)NO	200
COc1ccc2c(c1)N(CCCCCC(=O)NO)C(=O)c1ccccc1S2	12
COc1ccc2c(c1)N(CCCCCC(=O)NO)C(=O)c1ccccc1O2	61
COc1ccc2c(c1)N(CCCCCC(=O)NO)C(=O)c1ccccc1N2	7
O=C(CCCCCN1C(=O)c2ccccc2Nc2ccccc21)NO	188
O=C(CCCCCN1C(=O)c2ccccc2S(=O)(=O)c2ccccc21)NO	342
O=C(CCCCCN1C(=O)c2ccccc2S(=O)(=O)c2ccc(Cl)cc21)NO	2110

system: NB-4; assay: Potentiation of all-trans retinoic acid-induced human NB4 cells differentiation after 72 hrs by NBT-reductase activity assay relative HDAC inhibitor alone; format: functional; conditions: not given

Compound	Ratio
O=C(CCCCCN1C(=O)c2ccccc2Oc2ccc(Cl)cc21)NO	1
CN1c2ccccc2C(=O)N(CCCCCC(=O)NO)c2ccccc21	13
COc1ccc2c(c1)N(CCCCCC(=O)NO)C(=O)c1ccccc1S2(=O)=O	79
O=C(CCCCCN1C(=O)c2ccccc2Oc2ccccc21)NO	2
O=C(CCCCCN1C(=O)c2ccccc2Nc2ccc(Cl)cc21)NO	1
O=C(CCCCCN1C(=O)c2ccccc2Sc2ccccc21)NO	5
O=C(CCCCCN1C(=O)c2ccccc2Sc2ccc(Cl)cc21)NO	31
COc1ccc2c(c1)N(CCCCCC(=O)NO)C(=O)c1ccccc1S2	16
COc1ccc2c(c1)N(CCCCCC(=O)NO)C(=O)c1ccccc1O2	7
COc1ccc2c(c1)N(CCCCCC(=O)NO)C(=O)c1ccccc1N2	1
O=C(CCCCCN1C(=O)c2ccccc2Nc2ccccc21)NO	6
O=C(CCCCCN1C(=O)c2ccccc2S(=O)(=O)c2ccccc21)NO	14
O=C(CCCCCN1C(=O)c2ccccc2S(=O)(=O)c2ccc(Cl)cc21)NO	56

target: T1, Histone deacetylase (Homo sapiens); assay: Inhibition of HDAC activity in human NB4 cells assessed as maximum acetylated tubulin at EC50 concentration after 24 hrs by Western blot analysis relative to control; format: cell-based; conditions: NB-4

Compound	Ratio
O=C(CCCCCN1C(=O)c2ccccc2Oc2ccc(Cl)cc21)NO	932
CN1c2ccccc2C(=O)N(CCCCCC(=O)NO)c2ccccc21	40
COc1ccc2c(c1)N(CCCCCC(=O)NO)C(=O)c1ccccc1S2(=O)=O	30600
O=C(CCCCCN1C(=O)c2ccccc2Oc2ccccc21)NO	2630
O=C(CCCCCN1C(=O)c2ccccc2Nc2ccc(Cl)cc21)NO	413
O=C(CCCCCN1C(=O)c2ccccc2Sc2ccccc21)NO	2000
O=C(CCCCCN1C(=O)c2ccccc2Sc2ccc(Cl)cc21)NO	13200
COc1ccc2c(c1)N(CCCCCC(=O)NO)C(=O)c1ccccc1S2	47
COc1ccc2c(c1)N(CCCCCC(=O)NO)C(=O)c1ccccc1O2	1780
COc1ccc2c(c1)N(CCCCCC(=O)NO)C(=O)c1ccccc1N2	199
O=C(CCCCCN1C(=O)c2ccccc2Nc2ccccc21)NO	402
O=C(CCCCCN1C(=O)c2ccccc2S(=O)(=O)c2ccccc21)NO	10700
O=C(CCCCCN1C(=O)c2ccccc2S(=O)(=O)c2ccc(Cl)cc21)NO	8850

target: Histone deacetylase; assay: Inhibition of HDAC activity in human NB4 cells assessed as acetylation of histone H4 after 24 hrs by Western blot analysis; format: cell-based; conditions: nb-4

Compound	EC50 [nM]
O=C(CCCCCN1C(=O)c2ccccc2Oc2ccc(Cl)cc21)NO	530
CN1c2ccccc2C(=O)N(CCCCCC(=O)NO)c2ccccc21	2950
COc1ccc2c(c1)N(CCCCCC(=O)NO)C(=O)c1ccccc1S2(=O)=O	90
O=C(CCCCCN1C(=O)c2ccccc2Oc2ccccc21)NO	3270
O=C(CCCCCN1C(=O)c2ccccc2Nc2ccc(Cl)cc21)NO	860
O=C(CCCCCN1C(=O)c2ccccc2Sc2ccccc21)NO	430
O=C(CCCCCN1C(=O)c2ccccc2Sc2ccc(Cl)cc21)NO	360
COc1ccc2c(c1)N(CCCCCC(=O)NO)C(=O)c1ccccc1S2	150
COc1ccc2c(c1)N(CCCCCC(=O)NO)C(=O)c1ccccc1O2	320
COc1ccc2c(c1)N(CCCCCC(=O)NO)C(=O)c1ccccc1N2	280
O=C(CCCCCN1C(=O)c2ccccc2Nc2ccccc21)NO	1530
O=C(CCCCCN1C(=O)c2ccccc2S(=O)(=O)c2ccccc21)NO	720
O=C(CCCCCN1C(=O)c2ccccc2S(=O)(=O)c2ccc(Cl)cc21)NO	60
